A word on the IC50: it is the concentration at which inhibition is half-maximal. A lower IC50 goes with inhibition by little substance.

Nine molecules from patent US20240124439A1, “Pyrido[2,3-D]Imidazole Derivatives and Their Use As Inhibitors of ITK for the Treatment of Skin Disease” (Pfizer Inc., priority 2020, published 2024) can be followed below.

Assay [1] relates to activated CD4+ human T-cells (IL-2). As to the kind of experiment: IL-2 inhibition in supernatants from activated CD4+ human T-cells (cisbio HTRF). It counts as cell-based. The following applies: T-cell; CD3/CD28-activated CD4+ human T cells, ImmunoCult stimulation 20 to 24 hrs; geometric mean of count n. The procedure:
IL-2 inhibition activity in supernatants from activated CD4+ human T-cells was determined by measuring the effect of a test compound on the activity using the cisbio HTRF™ technology.
Human CD4+ T cells were activated with CD3/CD28 for 3 days and expanded for an additional 4-6 days (7 to 9 days total). On day 0, frozen CD4+ T cells were thawed, treated with CD3/CD28 Dynabeads, and incubated at 37° C./5% CO2. On day 3, the beads were removed, and the cells were diluted to 5×10^5 cells/cm^2, placed in G-Rex10 flask, and incubated at 37° C./5% CO2. On day 7 to day 9 the cells were removed from the G-Rex flasks, counted and diluted back to 1×10^6 cells/ml in standard tissue culture flask.
The expanded CD4+ T-cells were centrifuged at 300×g for 10 minutes and resuspended to 0.5 million cells per ml (30,000 cells/well). 60 μl of CD4+ T cells were added per well to a 384 well plate containing 0.1 μL of varying concentrations of test compound in DMSO. The plates were incubated for 15 min at 37° C./5% CO2. 20 μl of diluted ImmunoCult™ (STEMCELL Technologies, 1:12.5 in T cell assay media) were added to all wells of the plate (1:50 final assay concentration). The plates were incubated for an additional 20 to 24 hrs at 37° C./5% CO2. The plates were centrifuged at 300×g for 10 minutes. 16 μL of supernatant was removed and combined with 4 μl of IL-2 HTRF Abs. (cisbio kit). Plates were incubated for 3 hours at RT and read with an EnVision plate reader at 665 nm and 615 nm wavelengths. The concentrations and resulting effect values for the tested compound were plotted and the concentration of compound required for 50% effect (IC50) was determined with the four-parameter logistic dose response equation.
In general terms: Time-resolved FRET reads energy transfer from a long-lived donor to a nearby acceptor.

For assay [2], the target named is IL-2-Inducible T-Cell Kinase (ITK) (Homo sapiens (Human), UniProt Q08881). Description: ITK enzyme assay (IL-2-inducible T-cell kinase activity). It counts as biochemical. The following applies: geometric mean of count n. The procedure:
ITK activity was determined by measuring the effect of a test compound in an ITK enzyme assay.
1.0 M HEPES Buffer pH 7.5 solution was prepared as follows: 238.3 g HEPES free acid (Sigma) and 800 mL of water were combined, and the mixture was stirred until complete dissolution. The pH was adjusted to 7.5 via titration with 5N NaOH and the volume adjusted to 1000 mL. The solution was filtered and sterilized.
ITK assay buffer was prepared as follows: 50 mL of HPLC-grade water was treated with 2 mL of 1.0 M HEPES Buffer, 500 μL of 2% Gelatin (Sigma), 1.0 mL of aqueous MgCl2 solution (1.0 M), and 1.0 mL of aqueous glutathione solution (0.5 M), and the solution was mixed. The solution was brought to 99 mL in a graduated cylinder by addition of water and sterilized through a 0.2 μm filter. 0.1 mL of Brij-35™ Surfact-Amps™ Detergent Solution (10% w/v aqueous solution, ThermoFisher) and 1.0 mL of ATP (Teknova,100 mM) were added and the solution was mixed.
Preparation of 1.33× ITK enzyme solution was as follows: 49.99 mL of ITK assay buffer was treated with 4.1 μL of ITK enzyme (ITK FL (N-Flag and C-His tagged, […]) Lake Pharma, 0.25 mg/ml in a buffer containing 25 mM Tris pH 7.8, 150 mM NaCl, 10% glycerol and 2 mM TCEP) and the mixture was gently agitated. The resulting solution was stored on ice. 30 Minutes prior to use, the enzyme solution was removed from ice and equilibrated to RT by incubation in a RT water bath.
Preparation of 4× ITK substrate solution was as follows: 50 mL of ITK assay buffer was treated with 100 μL of BTK peptide (China Peptide Company, 2 mM stock solution in DMSO). The tube was capped, mixed by gently inverting the tube, and then stored on ice. 30 Minutes prior to use, the substrate solution was removed from ice and equilibrated to RT by incubation in a RT water bath.
At the time of assay, 7.5 μL of the 1.33× ITK enzyme solution was added to plate wells containing 0.1 μL of varying concentrations of test compound in DMSO. The plate was incubated 30 min at RT. The plate wells were each treated with 2.5 uL of the 4× ITK substrate solution and the plate was sealed (TopSeal™, Perkin Elmer). The plate was spun at 1000 rpm for 30 sec and then incubated for 60 min at RT. The seal was removed, and each well was treated with 10 μL of Stop/Detect Buffer (20 mM HEPES pH 7.5, 0.01% gelatin, 1 nM LANCE PT66 (Perkin Elmer), 16.5 μg/ml Surelight APC (Perkin Elmer), 10 mM EDTA, 250 mM NaCl). The plate was again covered and was spun at 1000 rpm for […]. The plate was allowed to incubate overnight at RT and in a closed carrier to reduce dehydration. The seal was removed, and the fluorescence was read with a plate reader with an excitation wavelength of […]. The concentrations and resulting effect values for the tested compound were plotted and the concentration of compound required for 50% effect (IC50) was determined with the four-parameter logistic dose response equation.

Chain of IL-2-Inducible T-Cell Kinase (ITK) (Q08881 whole entry): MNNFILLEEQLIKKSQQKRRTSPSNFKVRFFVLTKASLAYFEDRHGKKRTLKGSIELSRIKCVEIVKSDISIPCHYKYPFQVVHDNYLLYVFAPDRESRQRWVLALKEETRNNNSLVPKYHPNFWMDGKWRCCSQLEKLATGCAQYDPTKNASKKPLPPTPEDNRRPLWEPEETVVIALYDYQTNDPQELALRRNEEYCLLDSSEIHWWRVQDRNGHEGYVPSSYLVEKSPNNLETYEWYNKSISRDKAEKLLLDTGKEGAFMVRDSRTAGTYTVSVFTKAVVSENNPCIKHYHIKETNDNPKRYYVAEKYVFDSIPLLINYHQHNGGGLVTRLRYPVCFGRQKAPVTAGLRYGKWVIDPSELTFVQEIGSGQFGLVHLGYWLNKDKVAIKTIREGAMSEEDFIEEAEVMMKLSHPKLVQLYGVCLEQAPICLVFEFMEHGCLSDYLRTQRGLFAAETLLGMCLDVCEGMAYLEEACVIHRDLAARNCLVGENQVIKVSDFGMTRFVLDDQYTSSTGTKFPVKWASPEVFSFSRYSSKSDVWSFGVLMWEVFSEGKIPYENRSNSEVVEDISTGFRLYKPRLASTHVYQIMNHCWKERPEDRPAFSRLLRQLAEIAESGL

`CN(C(=O)C1(C)CCC(F)(F)CC1)c1cnc2nc(-c3n[nH]c4c3C[C@@H]3C[C@]3(C)C4)[nH]c2c1` [Example 62, 4,4-Difluoro-N,1-dimethyl-N-(2-((4aS,5aR)-5a-methyl-1,4,4a,5,5a,6-hexahydrocyclopropa[f]indazol-3-yl)-1H-imidazo[4,5-b]pyridin-6-yl)cyclohexane-1-carboxamide]: the IC50 in assay [1] amounted to 402 nM; in assay [2], 141 nM.
On the same counts, the results for `C[C@@H](C(=O)N(C)c1cnc2[nH]c(-c3n[nH]c4c3C[C@@H]3C[C@]3(C)C4)nc2c1)N1C[C@H]2CC[C@@H]1CO2` [Example 116, (S)-2-((1R,4R)-2-Oxa-5-azabicyclo[2.2.2]octan-5-yl)-N-methyl-N-(2-((4aS,5aR)-5a-methyl-1,4,4a,5,5a,6-hexahydrocyclopropa[f]indazol-3-yl)-3H-imidazo[4,5-b]pyridin-6-yl)propanamide] are 172 nM and 18 nM.
On the same counts, the results for `CCC(CC)C(=O)N(C)c1cnc2nc(-c3n[nH]c4c3C[C@@H]3C[C@]3(C)C4)[nH]c2c1` [Example 82, 2-Ethyl-N-methyl-N-(2-((4aS,5aR)-5a-methyl-1,4,4a,5,5a,6-hexahydrocyclopropa[f]indazol-3-yl)-1H-imidazo[4,5-b]pyridin-6-yl)butanamide] are 176 nM and 20 nM.
On the same counts, the results for `C[C@@H](C(=O)N(C)c1cnc2[nH]c(-c3n[nH]c4c3C[C@@H]3C[C@]3(C)C4)nc2c1)N1CCCCC1` [Example 118, (S)-N-Methyl-N-(2-((4aS,5aR)-5a-methyl-1,4,4a,5,5a,6-hexahydrocyclopropa[f]indazol-3-yl)-3H-imidazo[4,5-b]pyridin-6-yl)-2-(piperidin-1-yl)propanamide] are 727 nM and 243 nM.
For the molecule `Cc1nc2[nH]c(-c3n[nH]c4c3C[C@@H]3C[C@]3(C)C4)nc2cc1N(C)C(=O)[C@H](C)N1CCOCC1` [Example 34, (S)-N-Methyl-N-(5-methyl-2-((4aS,5aR)-5a-methyl-1,4,4a,5,5a,6-hexahydrocyclopropa[f]indazol-3-yl)-3H-imidazo[4,5-b]pyridin-6-yl)-2-morpholinopropanamide], the IC50 came out at 481 nM in assay [1] and 61 nM in assay [2].
On the same counts, the results for `CC(C)CC(=O)N(C)c1cnc2[nH]c(-c3n[nH]c4c3CCC(C)(C)C4)nc2c1` [Example 102, N-(2-(6,6-Dimethyl-4,5,6,7-tetrahydro-1H-indazol-3-yl)-3H-imidazo[4,5-b]pyridin-6-yl)-N,3-dimethylbutanamide] are 749 nM and 269 nM.
On the same counts, the results for `CN(C(=O)[C@@H](F)C1CCOCC1)c1cnc2nc(-c3n[nH]c4c3C[C@@H]3C[C@]3(C)C4)[nH]c2c1` [Example 13, (S)-2-Fluoro-N-methyl-N-(2-((4aS,5aR)-5a-methyl-1,4,4a,5,5a,6-hexahydrocyclopropa[f]indazol-3-yl)-1H-imidazo[4,5-b]pyridin-6-yl)-2-(tetrahydro-2H-pyran-4-yl)acetamide] are 559 nM and 102 nM.
On the same counts, the results for `CCN(C(=O)[C@H](C)N1CCOCC1)c1cnc2nc(-c3n[nH]c4c3C[C@@H]3C[C@]3(C)C4)[nH]c2c1` [Example 21, (S)-N-Ethyl-N-(2-((4aS,5aR)-5a-methyl-1,4,4a,5,5a,6-hexahydrocyclopropa[f]indazol-3-yl)-1H-imidazo[4,5-b]pyridin-6-yl)-2-morpholinopropanamide] are 193 nM and 38 nM.
With `C[C@H](C(=O)N(C)c1cnc2nc(-c3n[nH]c4c3C[C@@H]3C[C@]3(C)C4)[nH]c2c1)n1cccn1` [Example 8, (R)-N-Methyl-N-(2-((4aS,5aR)-5a-methyl-1,4,4a,5,5a,6-hexahydrocyclopropa[f]indazol-3-yl)-1H-imidazo[4,5-b]pyridin-6-yl)-2-(1H-pyrazol-1-yl)propanamide], the results for the IC50 in assay [1] and in assay [2] were 279 nM and 117 nM, respectively.
